From US6831081B2, “4-Oxo-4,7-dihydrothieno[2,3-b]pyridine-5-carboxamides as antiviral agents” (Pharmacia & Upjohn, priority 2002, dated 2004)

What was measured:
HCMV polymerase = target: T1, HCMV polymerase (Human cytomegalovirus, UniProt P08546); test: HCMV polymerase scintillation proximity assay; format: biochemical
T1 construct: made in house; host or cells: SF-9 insect cells (recombinant baculovirus)
Method: (§1) The HCMV polymerase assay is performed using a scintillation proximity assay (SPA) as described in several references, such as N.D. Cook, et al., Pharmaceutical Manufacturing International, pages 49-53 (1992), K Takeuchi, Laboratory Practice, September issue (1992); U.S. Pat. No. 4,568,649 (1986); which are incorporated by reference herein. Reactions are performed in 96-well plates. The assay is conducted in 100 μl volume with 5.4 mM HEPES (pH 7.5), 11.7 mM KCl, 4.5 mM MgCl2, 0.36 mg/ml BSA, and 90 nM ^3H-dTTP. Assays are run with and without CHAPS, (3-[(3-Cholamidopropyl)-dimethylammonio]-1-propane-sulfonate) at a final concentration of 2 mM. HCMV polymerase is diluted in enzyme dilution buffer containing 50% glycerol, 250 mM NaCl, 10 mM HEPES (pH 7.5), […] BSA, and 0.01% sodium azide. The HCMV polymerase, which is expressed in recombinant baculovirus-infected SF-9 cells and purified according to literature procedures, is added at 10% (or 10 μl) of the final reaction volume, i.e., 100 μl. Compounds are diluted in 50% DMSO and 10 μl are added to each well. Control wells contain an equivalent concentration of DMSO. Unless noted otherwise, reactions are initiated via the addition of 6 nM biotinylated poly(dA)-oligo(dT) template/primer to reaction mixtures containing the enzyme, substrate, and compounds of interest. Plates are incubated in a 25° C. or 37° C. H2O bath and terminated via the addition of 40 μl/reaction of 0.5 M EDTA (pH 8) per well. Reactions are terminated within the time-frame during which substrate incorporation is linear and varied depending upon the enzyme and conditions used, Le., 30 min. for HCMV polymerase. Ten (10) μl of streptavidin-SPA beads (20 mg/ml in PBS/10% glycerol) are added following termination of the reaction. Plates are incubated 10 min. at 37° C., then equilibrated to room temperature, and counted on a Packard Topcount. Linear regressions are performed and IC50's are calculated using computer software.
(§2) A modified version of the above HCMV polymerase assay is performed as described above, but with the following changes: Compounds are diluted in 100% DMSO until final dilution into assay buffer. In the previous assay, compounds are diluted in 50% DMSO. 4.5 mM Dithiothreitol (DTT) is added to the polymerase buffer.
(§3) All results are listed as Polymerase IC50(μM) values. In Table 1, the term “n.d.” refers to activity data not determined.

HSV polymerase = HSV polymerase (Human herpesvirus 1, UniProt P04293); test: HSV polymerase assay (SPA); format: biochemical
Method: [Worded in the source for another target; used here, by the source, with some conditions changed.] as §1, §2, §3

VZV polymerase = VZV polymerase (Varicella-zoster virus, UniProt P09252); test: VZV polymerase assay (SPA); format: biochemical
Method: [Worded in the source for another target; used here, by the source, with some conditions changed.] as §1, with “Control wells contain an equivalent concentration of DMSO. Unless noted otherwise, reactions are initiated via the addition of 6 nM biotinylated poly(dA)-oligo(dT) template/primer to reaction mixtures containing the enzyme, substrate, and compounds of interest. Plates are incubated in a 25° C. or 37° C. H2O bath and terminated via the addition of 40 μl/reaction of 0.5 M EDTA (pH 8) per well. Reactions are terminated within the time-frame during which substrate incorporation is linear and varied depending upon the enzyme and conditions used, Le., 30 min. for HCMV polymerase. Ten (10) μl of streptavidin-SPA beads (20 mg/ml in PBS/10% glycerol) are added following termination of the reaction.” left out, “software. […]” for “software.”
as §3

T1 sequence (P08546 whole entry): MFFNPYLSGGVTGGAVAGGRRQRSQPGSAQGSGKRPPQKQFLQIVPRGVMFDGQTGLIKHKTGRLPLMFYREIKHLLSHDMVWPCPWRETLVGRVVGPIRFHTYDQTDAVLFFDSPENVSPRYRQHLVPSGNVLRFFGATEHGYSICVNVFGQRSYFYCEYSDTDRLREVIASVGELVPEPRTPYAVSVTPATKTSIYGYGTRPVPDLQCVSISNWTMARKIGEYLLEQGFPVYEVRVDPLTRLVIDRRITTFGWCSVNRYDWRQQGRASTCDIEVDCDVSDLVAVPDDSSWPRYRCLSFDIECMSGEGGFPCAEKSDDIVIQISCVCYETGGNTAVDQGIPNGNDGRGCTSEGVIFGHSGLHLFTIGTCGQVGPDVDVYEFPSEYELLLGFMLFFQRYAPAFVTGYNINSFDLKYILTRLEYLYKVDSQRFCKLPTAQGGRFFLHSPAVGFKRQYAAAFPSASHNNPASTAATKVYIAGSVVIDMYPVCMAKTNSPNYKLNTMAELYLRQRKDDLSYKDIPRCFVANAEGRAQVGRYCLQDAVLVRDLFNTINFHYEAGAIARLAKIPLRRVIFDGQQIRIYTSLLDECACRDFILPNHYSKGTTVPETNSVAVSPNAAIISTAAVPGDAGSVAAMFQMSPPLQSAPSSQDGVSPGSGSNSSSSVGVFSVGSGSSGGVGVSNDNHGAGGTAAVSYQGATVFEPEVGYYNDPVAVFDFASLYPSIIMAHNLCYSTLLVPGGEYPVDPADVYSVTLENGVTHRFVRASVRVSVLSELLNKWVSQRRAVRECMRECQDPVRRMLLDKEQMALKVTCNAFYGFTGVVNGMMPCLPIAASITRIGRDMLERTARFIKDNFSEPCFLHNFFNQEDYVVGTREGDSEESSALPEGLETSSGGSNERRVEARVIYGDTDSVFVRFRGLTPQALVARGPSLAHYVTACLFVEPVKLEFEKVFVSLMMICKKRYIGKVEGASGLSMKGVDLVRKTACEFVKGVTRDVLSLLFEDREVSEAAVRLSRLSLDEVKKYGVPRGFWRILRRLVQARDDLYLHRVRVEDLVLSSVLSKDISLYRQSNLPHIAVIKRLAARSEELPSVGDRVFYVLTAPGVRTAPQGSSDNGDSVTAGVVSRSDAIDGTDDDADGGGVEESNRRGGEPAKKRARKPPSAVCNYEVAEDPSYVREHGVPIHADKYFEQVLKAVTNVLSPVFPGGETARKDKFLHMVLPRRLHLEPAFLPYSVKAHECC
Sequence of HSV polymerase (P04293 whole entry): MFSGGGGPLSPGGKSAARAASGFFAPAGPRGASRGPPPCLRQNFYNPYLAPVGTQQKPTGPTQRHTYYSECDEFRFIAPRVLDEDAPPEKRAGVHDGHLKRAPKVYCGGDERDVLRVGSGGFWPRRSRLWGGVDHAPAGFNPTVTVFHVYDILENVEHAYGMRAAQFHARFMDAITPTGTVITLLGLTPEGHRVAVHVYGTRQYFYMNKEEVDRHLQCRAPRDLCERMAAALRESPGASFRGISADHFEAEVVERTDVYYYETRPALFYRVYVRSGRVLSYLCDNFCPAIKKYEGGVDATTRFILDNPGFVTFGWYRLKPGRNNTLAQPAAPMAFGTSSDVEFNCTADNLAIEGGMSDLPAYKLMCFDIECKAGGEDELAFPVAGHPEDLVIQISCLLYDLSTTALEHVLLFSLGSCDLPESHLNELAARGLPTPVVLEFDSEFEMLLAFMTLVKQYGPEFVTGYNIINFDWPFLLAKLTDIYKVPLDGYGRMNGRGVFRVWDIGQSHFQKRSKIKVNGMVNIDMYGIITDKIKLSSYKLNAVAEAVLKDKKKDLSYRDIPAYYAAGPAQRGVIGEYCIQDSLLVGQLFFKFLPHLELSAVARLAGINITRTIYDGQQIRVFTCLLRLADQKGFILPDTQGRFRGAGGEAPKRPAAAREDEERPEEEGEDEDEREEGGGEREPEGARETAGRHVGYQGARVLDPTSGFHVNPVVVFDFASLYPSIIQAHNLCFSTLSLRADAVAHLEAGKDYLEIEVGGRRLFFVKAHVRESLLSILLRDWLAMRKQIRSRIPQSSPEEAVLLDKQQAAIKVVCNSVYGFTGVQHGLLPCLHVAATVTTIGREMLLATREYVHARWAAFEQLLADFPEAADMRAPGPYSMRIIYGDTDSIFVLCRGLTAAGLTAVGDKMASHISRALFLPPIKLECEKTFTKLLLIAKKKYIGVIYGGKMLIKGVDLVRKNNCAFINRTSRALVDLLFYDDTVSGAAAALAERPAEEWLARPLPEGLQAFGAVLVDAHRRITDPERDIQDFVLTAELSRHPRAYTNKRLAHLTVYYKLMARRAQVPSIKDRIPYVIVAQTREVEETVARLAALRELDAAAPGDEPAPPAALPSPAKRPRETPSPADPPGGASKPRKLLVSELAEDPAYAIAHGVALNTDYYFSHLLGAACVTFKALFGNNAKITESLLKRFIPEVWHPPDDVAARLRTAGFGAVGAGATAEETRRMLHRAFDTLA
Sequence of VZV polymerase (P09252 whole entry): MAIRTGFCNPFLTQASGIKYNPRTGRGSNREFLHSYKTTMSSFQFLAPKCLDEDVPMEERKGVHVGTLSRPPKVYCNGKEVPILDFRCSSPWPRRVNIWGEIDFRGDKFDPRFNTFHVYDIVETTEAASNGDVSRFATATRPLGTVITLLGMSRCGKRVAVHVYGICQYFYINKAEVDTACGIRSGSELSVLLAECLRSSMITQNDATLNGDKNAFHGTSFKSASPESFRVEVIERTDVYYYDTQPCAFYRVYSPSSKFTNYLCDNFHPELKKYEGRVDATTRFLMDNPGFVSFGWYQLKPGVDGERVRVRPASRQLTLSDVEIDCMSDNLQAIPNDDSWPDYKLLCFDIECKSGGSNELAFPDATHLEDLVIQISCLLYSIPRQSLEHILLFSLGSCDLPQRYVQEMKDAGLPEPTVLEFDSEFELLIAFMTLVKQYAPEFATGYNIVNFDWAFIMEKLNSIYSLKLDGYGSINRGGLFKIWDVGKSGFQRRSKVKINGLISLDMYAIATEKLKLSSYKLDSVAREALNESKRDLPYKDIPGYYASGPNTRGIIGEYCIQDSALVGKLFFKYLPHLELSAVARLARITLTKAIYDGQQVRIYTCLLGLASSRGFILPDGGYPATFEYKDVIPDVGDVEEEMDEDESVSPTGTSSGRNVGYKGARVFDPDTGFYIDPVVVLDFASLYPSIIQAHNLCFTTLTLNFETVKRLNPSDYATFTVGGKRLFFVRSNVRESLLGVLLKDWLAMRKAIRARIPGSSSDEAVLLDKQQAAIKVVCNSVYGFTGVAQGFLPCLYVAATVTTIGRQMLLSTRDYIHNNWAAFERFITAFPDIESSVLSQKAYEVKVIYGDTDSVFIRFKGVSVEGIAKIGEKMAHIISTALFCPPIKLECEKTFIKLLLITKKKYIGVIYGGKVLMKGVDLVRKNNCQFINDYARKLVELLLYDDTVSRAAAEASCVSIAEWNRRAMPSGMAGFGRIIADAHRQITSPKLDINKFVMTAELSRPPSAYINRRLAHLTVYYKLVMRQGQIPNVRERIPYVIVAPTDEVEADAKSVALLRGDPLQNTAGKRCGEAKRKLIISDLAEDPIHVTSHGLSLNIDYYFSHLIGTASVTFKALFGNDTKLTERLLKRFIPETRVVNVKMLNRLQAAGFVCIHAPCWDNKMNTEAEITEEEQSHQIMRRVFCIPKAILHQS

IC50 (HCMV polymerase) [nM]	IC50 (HSV polymerase) [nM]	melting point [°C]	IC50 (VZV polymerase) [nM]	SMILES
24	22	129 to 134	–	Cn1cc(C(=O)NCc2ccc(Cl)cc2)c(=O)c2cc(CN3CCOC[C@@H]3[C@@H](O)c3ccccc3)sc21 [Example 15, N-(4-Chlorobenzyl)-2-(((3R)-3-((S)hydroxy(phenyl)methyl)morpholin-4-yl)-methyl)-7-methyl-4-oxo-4,7-dihydrothieno[2,3-b]pyridine-5-carboxamide]
450	1000	–	420	Cn1cc(C(=O)NCc2ccc(Cl)cc2)c(=O)c2cc(CN3CCOC[C@@H]3Cc3ccccc3)sc21 [Example 1, 2-(((3S)-3-Benzylmorpholin-4-yl)methyl)-N-(4-chlorobenzyl)-7-methyl-4-oxo-4,7-dihydrothieno[2,3-b]pyridine-5-carboxamide]
120	720	158 to 162	210	Cn1cc(C(=O)NCc2ccc(Cl)cc2)c(=O)c2cc(CN3CCC[C@@H]3[C@@H](O)c3ccccc3)sc21 (relative stereo) [Example 2, N-(4-Chlorobenzyl)-2-(((2R*2)-(S*)-hydroxy(phenyl)methyl)pyrrolidin-1-yl)methyl)-7-methyl-4-oxo-4,7-dihydrothieno[2,3-b]pyridine-5-carboxamide]
1270	2970	171 to 172	–	Cn1cc(C(=O)NCc2ccc(Cl)cc2)c(=O)c2cc(CN3CCOC[C@@H]3[C@H](O)c3ccccc3)sc21 [Example 14, N-(4-Chlorobenzyl)-2-(((3R)-3-((R)-hydroxy(phenyl)methyl)morpholin-4-yl)-methyl)-7-methyl-4-oxo-4,7-dihydrothieno[2,3-b]pyridine-5-carboxamide]
